Drawing on the supplement of paper PMC10307832, this text covers relative viability for four cell lines.

Test in all cases: relative viability (nuclei count vs DMSO), 5 days (fraction); higher = more cells survive
Compound in the test “FH535 + Linsitinib”: CC1=C(C=CC(=C1)[N+](=O)[O-])NS(=O)(=O)C2=C(C=CC(=C2)Cl)Cl [FH535] + C[C@]1(O)C[C@@H](c2nc(-c3ccc4ccc(-c5ccccc5)nc4c3)c3c(N)nccn32)C1 [Linsitinib] (partner 1 µM)
Summed up:
(§1)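 A single step with final 0.05% Triton X-100, 1% formaldehyde and 1 ug/ml Hoechst fixed the cells and stained nuclei 5 days after treatment. Lung cancer cell lines in 1536-well plates had been treated by pin tool the day after seeding with one drug alone or a fixed anchor-drug dose plus five library-drug doses (not always all listed) in √10 steps, and nuclei were counted on 4× images. Relative viability is the ratio of nuclei in treated wells to nuclei in vehicle wells, taken as the median of duplicate plates.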

Compound in the test “FH535 + Luminespib”: CC1=C(C=CC(=C1)[N+](=O)[O-])NS(=O)(=O)C2=C(C=CC(=C2)Cl)Cl [FH535] + CCNC(=O)c1noc(-c2cc(C(C)C)c(O)cc2O)c1-c1ccc(CN2CCOCC2)cc1 [Luminespib] (partner 0.01 µM)
In outline: as §1

Compound in the test “FH535 + Pictilisib”: CC1=C(C=CC(=C1)[N+](=O)[O-])NS(=O)(=O)C2=C(C=CC(=C2)Cl)Cl [FH535] + CS(=O)(=O)N1CCN(Cc2cc3nc(-c4cccc5[nH]ncc45)nc(N4CCOCC4)c3s2)CC1 [Pictilisib] (partner 1 µM)
Summed up: as §1

Compound in the test “FH535 + Phenformin”: CC1=C(C=CC(=C1)[N+](=O)[O-])NS(=O)(=O)C2=C(C=CC(=C2)Cl)Cl [FH535] + N=C(N)NC(=N)NCCc1ccccc1 [Phenformin] (partner 250 µM)
Summed up: as §1

Compound in the test “FH535 + Crizotinib”: CC1=C(C=CC(=C1)[N+](=O)[O-])NS(=O)(=O)C2=C(C=CC(=C2)Cl)Cl [FH535] + C[C@@H](Oc1cc(-c2cnn(C3CCNCC3)c2)cnc1N)c1c(Cl)ccc(F)c1Cl [Crizotinib] (partner 1 µM)
Summed up: as §1

As to HOP-62, the relative viability with FH535 + Linsitinib (first compound 0.04 µM) turned out to be 1.01; in the test with FH535 + Linsitinib (first compound 0.1265 µM) it was 1.09; with FH535 + Linsitinib (first compound 0.4 µM) it was 1.07; with FH535 + Linsitinib (first compound 1.265 µM), 0.713; with FH535 + Luminespib (first compound 0.04 µM), 0.695; in the test with FH535 + Luminespib (first compound 0.1265 µM) it was 0.98. Also, the relative viability worked out at 0.831 in the test with FH535 + Luminespib (first compound 0.4 µM); 0.707 with FH535 + Luminespib (first compound 1.265 µM); 0.505 with FH535 + Pictilisib (first compound 0.04 µM); 0.606 with FH535 + Pictilisib (first compound 0.1265 µM); 0.64 with FH535 + Pictilisib (first compound 0.4 µM); 0.676 with FH535 + Pictilisib (first compound 1.265 µM). Moreover, the relative viability in the test with FH535 + Phenformin (first compound 0.04 µM) stood at 0.682; with FH535 + Phenformin (first compound 0.1265 µM) it was 0.668; in the test with FH535 + Phenformin (first compound 0.4 µM), 0.552; in the test with FH535 + Phenformin (first compound 1.265 µM), 0.401; with FH535 + Crizotinib (first compound 0.04 µM), 0.953; with FH535 + Crizotinib (first compound 0.1265 µM), 1.01. For the same cell line, the relative viability was 0.69 with FH535 + Crizotinib (first compound 0.4 µM) and 0.988 with FH535 + Crizotinib (first compound 1.265 µM).
As to NCI-H23, the relative viability stood at 0.633 with FH535 + Linsitinib (first compound 0.1265 µM); 0.628 with FH535 + Linsitinib (first compound 0.4 µM); 0.567 with FH535 + Linsitinib (first compound 1.265 µM); 0.207 with FH535 + Luminespib (first compound 0.1265 µM); 0.199 with FH535 + Luminespib (first compound 0.4 µM); 0.225 in the test with FH535 + Luminespib (first compound 1.265 µM). Moreover, the relative viability was 0.41 with FH535 + Pictilisib (first compound 0.1265 µM); 0.483 with FH535 + Pictilisib (first compound 0.4 µM); 0.508 with FH535 + Pictilisib (first compound 1.265 µM); 0.786 in the test with FH535 + Phenformin (first compound 0.04 µM); 0.739 with FH535 + Phenformin (first compound 0.1265 µM); 0.655 with FH535 + Phenformin (first compound 0.4 µM). Besides, the relative viability with FH535 + Phenformin (first compound 1.265 µM) turned out to be 0.555; with FH535 + Crizotinib (first compound 0.1265 µM), 0.555; in the test with FH535 + Crizotinib (first compound 0.4 µM) it was 0.584; with FH535 + Crizotinib (first compound 1.265 µM), 0.581.
With LCLC-103H, the relative viability with FH535 + Linsitinib (first compound 0.04 µM) stood at 1.06; in the test with FH535 + Linsitinib (first compound 0.1265 µM), 1.09; with FH535 + Linsitinib (first compound 0.4 µM) it was 1.21; with FH535 + Linsitinib (first compound 1.265 µM), 0.868; with FH535 + Luminespib (first compound 0.04 µM), 0.936; in the test with FH535 + Luminespib (first compound 0.1265 µM) it was 1.02. In addition, the relative viability with FH535 + Luminespib (first compound 0.4 µM) was found to be 0.862; with FH535 + Luminespib (first compound 1.265 µM), 0.616; with FH535 + Pictilisib (first compound 0.04 µM), 0.598; with FH535 + Pictilisib (first compound 0.1265 µM), 0.608; in the test with FH535 + Pictilisib (first compound 0.4 µM), 0.561; with FH535 + Pictilisib (first compound 1.265 µM), 0.535. The relative viability with FH535 + Phenformin (first compound 0.04 µM) was 0.326; with FH535 + Phenformin (first compound 0.1265 µM), 0.286; with FH535 + Phenformin (first compound 0.4 µM), 0.255; with FH535 + Phenformin (first compound 1.265 µM), 0.262; with FH535 + Crizotinib (first compound 0.04 µM), 1.04; in the test with FH535 + Crizotinib (first compound 0.1265 µM), 1.11. In addition, the relative viability stood at 1.02 with FH535 + Crizotinib (first compound 0.4 µM) and 0.844 in the test with FH535 + Crizotinib (first compound 1.265 µM).
Turning to NCI-H1734, the relative viability worked out at 0.838 in the test with FH535 + Linsitinib (first compound 0.04 µM); 0.939 in the test with FH535 + Linsitinib (first compound 0.1265 µM); 0.876 with FH535 + Linsitinib (first compound 0.4 µM); 0.866 with FH535 + Linsitinib (first compound 1.265 µM); 0.207 with FH535 + Luminespib (first compound 0.1265 µM); 0.215 with FH535 + Luminespib (first compound 0.4 µM). The relative viability was found to be 0.176 with FH535 + Luminespib (first compound 1.265 µM); 0.458 with FH535 + Pictilisib (first compound 0.04 µM); 0.523 with FH535 + Pictilisib (first compound 0.1265 µM); 0.489 with FH535 + Pictilisib (first compound 0.4 µM); 0.416 with FH535 + Pictilisib (first compound 1.265 µM); 0.394 in the test with FH535 + Phenformin (first compound 0.1265 µM). Also, the relative viability worked out at 0.373 in the test with FH535 + Phenformin (first compound 0.4 µM); 0.269 with FH535 + Phenformin (first compound 1.265 µM); 0.625 with FH535 + Crizotinib (first compound 0.04 µM); 0.691 in the test with FH535 + Crizotinib (first compound 0.1265 µM); 0.648 with FH535 + Crizotinib (first compound 0.4 µM); 0.588 in the test with FH535 + Crizotinib (first compound 1.265 µM).
